In patent US9744222B2, “Peptide for vaccine” (Circassia Limited, priority 2007, dated 2017):
Where a SMILES comes first, the peptide text is derived from it.

Test: Solubility pre-screen of peptides
Conditions: pre-screened for solubility in an aqueous, acidic milieu; YES/NO
Experimental: Methods The assay employed is a competitive MHC class II binding assay, wherein each peptide is analysed for its ability to displace a known control binder from each of the human MHC class II allotypes investigated.
Also shown is the solubility status of the peptide at the highest concentrations in the aqueous solution of the binding assay. The value illustrates the lowest concentration at which an insoluble white precipitate is seen.

| SMILES | Solubility test |
| --- | --- |
| CC[C@H](C)[C@H](N)C(=O)N[C@@H](CC(=O)O)C(=O)N[C@@H](CC(C)C)C(=O)N[C@@H](CCCNC(=N)N)C(=O)N[C@@H](CCC(N)=O)C(=O)N[C@@H](CCSC)C(=O)N[C@@H](CCCNC(=N)N)C(=O)N[C@H](C(=O)N[C@H](C(=O)N[C@H](C(=O)N1CCC[C@H]1C(=O)N[C@H](C(=O)N[C@@H](CCCNC(=N)N)C(=O)O)[C@@H](C)CC)[C@@H](C)O)C(C)C)[C@@H](C)O [HDM01] (H-IDLRQMRTVTPIR-OH; N-terminus and C-terminus assumed) | YES |
| CC[C@H](C)[C@H](NC(=O)[C@@H]1CCCN1C(=O)[C@@H](NC(=O)[C@@H](NC(=O)[C@@H](NC(=O)[C@@H](N)CCCNC(=N)N)[C@@H](C)O)C(C)C)[C@@H](C)O)C(=O)N[C@@H](CCCNC(=N)N)C(=O)N[C@@H](CCSC)C(=O)N[C@@H](CCC(N)=O)C(=O)NCC(=O)NCC(=O)N[C@@H](CS)C(=O)NCC(=O)O [HDM02] (H-RTVTPIRMQGGCG-OH; N-terminus and C-terminus assumed) | YES |
| CC(C)C[C@H](NC(=O)[C@H](CC(=O)O)NC(=O)[C@H](CC(C)C)NC(=O)[C@H](CO)NC(=O)[C@H](CCC(N)=O)NC(=O)[C@H](CC(N)=O)NC(=O)[C@@H](N)CCCNC(=N)N)C(=O)N[C@@H](C)C(=O)N[C@@H](CCC(=O)O)C(=O)N[C@@H](CCC(N)=O)C(=O)N[C@@H](CCC(=O)O)C(=O)N[C@@H](CC(C)C)C(=O)N[C@H](C(=O)N[C@@H](CC(=O)O)C(=O)N[C@@H](CS)C(=O)N[C@@H](C)C(=O)N[C@@H](CO)C(=O)N[C@@H](CCC(N)=O)C(=O)N[C@@H](Cc1c[nH]cn1)C(=O)O)C(C)C [HDM03C] (H-RNQSLDLAEQELVDCASQH-OH; N-terminus and C-terminus assumed) | YES |
| CC[C@H](C)[C@H](NC(=O)[C@H](Cc1ccc(O)cc1)NC(=O)[C@@H](N)CCC(=O)O)C(=O)N[C@@H](CCC(N)=O)C(=O)N[C@@H](Cc1c[nH]cn1)C(=O)N[C@@H](CC(N)=O)C(=O)NCC(=O)N[C@H](C(=O)N[C@H](C(=O)N[C@@H](CCC(N)=O)C(=O)N[C@@H](CCC(=O)O)C(=O)N[C@@H](CO)C(=O)N[C@@H](Cc1ccc(O)cc1)C(=O)O)C(C)C)C(C)C [HDM05] (H-EYIQHNGVVQESY-OH; N-terminus and C-terminus assumed) | YES |
| CC(C)[C@H](NC(=O)[C@H](Cc1ccc(O)cc1)NC(=O)[C@@H](N)CCCNC(=N)N)C(=O)N[C@@H](C)C(=O)N[C@@H](CCCNC(=N)N)C(=O)N[C@@H](CCC(=O)O)C(=O)N[C@@H](CCC(N)=O)C(=O)N[C@@H](CO)C(=O)N[C@@H](CS)C(=O)N[C@@H](CCCNC(=N)N)C(=O)N[C@@H](CCCNC(=N)N)C(=O)N1CCC[C@H]1C(=O)N[C@@H](CC(N)=O)C(=O)O [HDM06] (H-RYVAREQSCRRPN-OH; N-terminus and C-terminus assumed) | YES |
| CC[C@H](C)[C@H](NC(=O)[C@H](CCCCN)NC(=O)[C@H](CC(N)=O)NC(=O)[C@@H](NC(=O)[C@H](CC(N)=O)NC(=O)[C@@H]1CCCN1)C(C)C)C(=O)N[C@@H](CCCNC(=N)N)C(=O)N[C@@H](CCC(=O)O)C(=O)N[C@@H](C)C(=O)N[C@@H](CC(C)C)C(=O)N[C@@H](C)C(=O)N[C@@H](CCC(N)=O)C(=O)N[C@H](C(=O)O)[C@@H](C)O [HDM07] (H-PNVNKIREALAQT-OH; N-terminus and C-terminus assumed) | YES |
| CC[C@H](C)[C@H](NC(=O)[C@H](CCCCN)NC(=O)[C@@H](N)CC(N)=O)C(=O)N[C@@H](CCCNC(=N)N)C(=O)N[C@@H](CCC(=O)O)C(=O)N[C@@H](C)C(=O)N[C@@H](CC(C)C)C(=O)N[C@@H](C)C(=O)N[C@@H](CCC(N)=O)C(=O)N[C@H](C(=O)N[C@@H](Cc1c[nH]cn1)C(=O)N[C@@H](CO)C(=O)N[C@@H](C)C(=O)O)[C@@H](C)O [HDM08] (H-NKIREALAQTHSA-OH; N-terminus and C-terminus assumed) | YES |
| CC[C@H](C)[C@H](NC(=O)[C@@H](NC(=O)[C@H](C)NC(=O)[C@@H](NC(=O)[C@H](C)NC(=O)[C@H](CO)NC(=O)[C@H](Cc1c[nH]cn1)NC(=O)[C@@H](NC(=O)[C@H](CCC(N)=O)NC(=O)[C@H](C)NC(=O)[C@H](CC(C)C)NC(=O)[C@H](C)NC(=O)[C@H](CCC(=O)O)NC(=O)[C@@H](N)CCCNC(=N)N)[C@@H](C)O)[C@@H](C)CC)C(C)C)C(=O)O [HDM09A] (H-REALAQTHSAIAVI-OH; N-terminus and C-terminus assumed) | YES |
| CC[C@H](C)[C@H](N)C(=O)NCC(=O)N[C@H](C(=O)N[C@@H](CCCCN)C(=O)N[C@@H](CC(=O)O)C(=O)N[C@@H](CC(C)C)C(=O)N[C@@H](CC(=O)O)C(=O)N[C@@H](C)C(=O)N[C@@H](Cc1ccccc1)C(=O)N[C@@H](CCCNC(=N)N)C(=O)N[C@@H](Cc1c[nH]cn1)C(=O)N[C@@H](Cc1ccc(O)cc1)C(=O)N[C@@H](CC(=O)O)C(=O)O)[C@@H](C)CC [HDM11] (H-IGIKDLDAFRHYD-OH; N-terminus and C-terminus assumed) | YES |
| CC(C)C[C@H](NC(=O)[C@H](CC(=O)O)NC(=O)[C@@H](N)CCCCN)C(=O)N[C@@H](CC(=O)O)C(=O)N[C@@H](C)C(=O)N[C@@H](Cc1ccccc1)C(=O)N[C@@H](CCCNC(=N)N)C(=O)N[C@@H](Cc1c[nH]cn1)C(=O)N[C@@H](Cc1ccc(O)cc1)C(=O)N[C@@H](CC(=O)O)C(=O)NCC(=O)N[C@@H](CCCNC(=N)N)C(=O)N[C@H](C(=O)O)[C@@H](C)O [HDM12] (H-KDLDAFRHYDGRT-OH; N-terminus and C-terminus assumed) | YES |
| C[C@@H](O)[C@H](NC(=O)[C@H](CC(=O)O)NC(=O)[C@H](Cc1c[nH]c2ccccc12)NC(=O)[C@H](CO)NC(=O)[C@H](CC(N)=O)NC(=O)[C@@H](N)CCCNC(=N)N)C(=O)N[C@@H](CC(N)=O)C(=O)N[C@@H](Cc1c[nH]c2ccccc12)C(=O)NCC(=O)N[C@@H](CC(=O)O)C(=O)N[C@@H](CC(N)=O)C(=O)NCC(=O)N[C@@H](Cc1ccc(O)cc1)C(=O)NCC(=O)O [HDM16A] (H-RNSWDTNWGDNGYG-OH; N-terminus and C-terminus assumed) | YES |
| CC(C)C[C@H](NC(=O)[C@H](CC(=O)O)NC(=O)[C@H](CC(C)C)NC(=O)[C@H](CCC(=O)O)NC(=O)[C@H](CO)NC(=O)[C@@H]1CCCN1C(=O)[C@@H](NC(=O)[C@H](CC(N)=O)NC(=O)[C@@H](NC(=O)[C@H](CO)NC(=O)[C@@H](N)CC(N)=O)C(C)C)C(C)C)C(=O)N[C@@H](CCCNC(=N)N)C(=O)N[C@@H](CO)C(=O)N[C@@H](CC(C)C)C(=O)N[C@@H](CCCNC(=N)N)C(=O)N[C@H](C(=O)O)[C@@H](C)O [HDM17] (H-NSVNVPSELDLRSLRT-OH; N-terminus and C-terminus assumed) | YES |
| CC[C@H](C)[C@H](NC(=O)[C@H](CCC(=O)O)NC(=O)[C@H](Cc1c[nH]cn1)NC(=O)[C@H](CC(N)=O)NC(=O)[C@H](C)NC(=O)[C@H](CS)NC(=O)[C@H](CC(=O)O)NC(=O)[C@H](CCCCN)NC(=O)[C@@H](NC(=O)[C@H](CC(=O)O)NC(=O)[C@@H](NC(=O)[C@H](CCC(N)=O)NC(=O)[C@@H](N)CC(=O)O)C(C)C)C(C)C)C(=O)N[C@@H](CCCCN)C(=O)N[C@@H](CCCCN)C(=O)O [HDM19] (H-DQVDVKDCANHEIKK-OH; N-terminus and C-terminus assumed) | YES |
